Experimental data reported in US12410191B2, “Macrolide derivatives, preparation method and application thereof” (ZHEJIANG HISUN PHARMACEUTICAL CO., LTD., priority 2019, dated 2025).
Like-named read-outs stand apart in the source and are kept apart here. Values belong to the molecule of their own block, whether it stands above or below them.

Key:
[1] = amide bond, pentafluorophenyl diphenylphosphinate (FDPP), dichloromethane, 25.0 °C
[2] = Pharmacokinetic study on ICR mice; assay type: in vivo
Procedure: ICR mice, male, 29.0 g to 33.8g, purchased from Beijing Charles River Laboratory Animal Technology Co., Ltd.
Intravenous injection group: an appropriate amount of drug was weighed, and added with mixed solvent (DMA: 30% Solutol HS-15: Saline=10:10:80 (v/v/v)) to prepare the drug with a final concentration of 0.2 mg/mL.
Oral gavage administration group: an appropriate amount of drug was weighed, added with an appropriate amount of sodium carboxymethyl cellulose (CMC-Na, containing 0.5% Tween 80), vortex shaked, and ultrasonically prepared into […] suspension.
For ICR mice, each compound to be tested was divided into an intravenous injection group (9 mice in each group) and an intragastric group (9 mice in each group). The ICR mice were fasted overnight and then administered by orbital intravenous injection (administration dose of 1 mg/kg, and administration volume of 5 mL/kg) and administered by intragastric injection (administration dose of 5 mg/kg, and administration volume of 10 mL/kg), and ate 4 hours after administration. 3. Operation
About 0.2 mL of blood was collected via jugular vein before administration and 0.083 hour, 0.25 hour, 0.5 hour, 1 hour, 2 hours, 4 hours, 8 hours, 12 hours and 24 hours after administration, and heparin sodium was used for anticoagulation. The collected blood samples were placed on ice, and plasma was separated by centrifugation (centrifugation condition: 1500 g, 10 minutes). The collected plasma was stored at −40° C. to −20° C. before analysis.
LC-MS/MS was used to determine the contents of different compounds to be tested in mouse plasma after intravenous injection and intragastric administration.

Structure (SMILES): C[C@H]1Nc2ccn3ncc(c3n2)C(=O)NC[C@]2(C)Cc3cc(F)cc1c3O2
- ring closure, yield of all isomers ([1]; from C[C@@H](Nc1ccn2ncc(C(=O)O)c2n1)c1cc(F)cc2c1O[C@](C)(CN)C2, N,N-diisopropylethylamine, 231.0 mM): 17.6%

Structure (SMILES): C[C@H]1Nc2ccn3ncc(c3n2)C(=O)NCCC2=Cc3cc(F)cc1c3O2
- ring closure, yield of all isomers ([1]; from C[C@@H](Nc1ccn2ncc(C(=O)O)c2n1)c1cc(F)cc2cc(CCN)oc12, DIPEA, 172.8 mM, 16.0 h): 25.4%

- bioavailability relative to repotrectinib [2]: 4.1 times
- AUC0-∞ relative to repotrectinib ([2]; 5 mg/kg oral): 10.6 times
- Cmax relative to repotrectinib ([2]; 5 mg/kg oral): 14.7 times
Structure (SMILES): C[C@H]1Nc2ccn3ncc(c3n2)C(=O)NC[C@@]2(C)Cc3cc(F)cc1c3O2 [Example 8, (3R,11R)-6-fluoro-3,11-dimethyl-10-oxa-2,13,17,18,21-pentaazapentacyclo[13.5.2.1^8,11.0^4,9.0^18,22]tricosa-1(21),4,6,8,15(22),16,19-heptaen-14-one]
- ring closure, yield of all isomers ([1]; from C[C@@H](Nc1ccn2ncc(C(=O)O)c2n1)c1cc(F)cc2c1O[C@@](C)(CN)C2, N,N-diisopropylethylamine, 172.0 mM): 26.3%

Structure (SMILES): C[C@H]1Nc2ccn3ncc(c3n2)C(=O)NC[C@@H]2COc3cc(F)cc1c3O2
- ring closure, yield of all isomers ([1]; from C[C@@H](Nc1ccn2ncc(C(=O)O)c2n1)c1cc(F)cc2c1O[C@H](CN)CO2, DIPEA, 215.1 mM, 16.0 h): 42%

Structure (SMILES): C[C@H]1Nc2ccn3ncc(c3n2)C(=O)NCC[C@@]2(C)Cc3cc(F)cc1c3O2
- ring closure, yield of all isomers ([1]; from C[C@@H](Nc1ccn2ncc(C(=O)O)c2n1)c1cc(F)cc2c1O[C@@](C)(CCN)C2, N,N-diisopropylethylamine, 131.0 mM): 18.2%

Structure (SMILES): C[C@H]1Nc2ccn3ncc(c3n2)C(=O)NCC2(C)Cc3cc(F)cc1c3O2 (stereo partly shown)
- ring closure, yield of all isomers ([1]; from C[C@@H](Nc1ccn2ncc(C(=O)O)c2n1)c1cc(F)cc2c1OC(C)(CN)C2, DIPEA, 154.8 mM, 16.0 h): 5.9%

Structure (SMILES): C[C@H]1Nc2ccn3ncc(c3n2)C(=O)NCC[C@H]2Cc3cc(F)cc1c3O2
- ring closure, yield of all isomers ([1]; from C[C@@H](Nc1ccn2ncc(C(=O)O)c2n1)c1cc(F)cc2c1OC(CCN)C2, DIPEA, 33.0 mM, 16.0 h, 2 steps): 23.1%
